Data from EP1515965B1, “PHENYLAMINOPYRIMIDINES AND THEIR USE AS RHO-KINASE INHIBITORS” (Bayer Schering Pharma Aktiengesellschaft, priority 2002, dated 2003).
Where two headings read alike, the source gives them in different places.

Legend:
[1] = biological target: T1, Rho-Kinase II (ROKα) (Rattus norvegicus, UniProt Q62868); assay: Inhibition of recombinant Rho-kinase II (ROKα), 33P-phosphate incorporation into S6 substrate peptide; format: biochemical; details: recombinant Rho-Kinase II (Upstate Biotechnology), S6 Phosphate-Acceptor-Peptide, 33P-ATP, 20 min at 37°C
T1 construct: purchased Upstate Biotechnology
T1 sequence (Q62868 whole entry): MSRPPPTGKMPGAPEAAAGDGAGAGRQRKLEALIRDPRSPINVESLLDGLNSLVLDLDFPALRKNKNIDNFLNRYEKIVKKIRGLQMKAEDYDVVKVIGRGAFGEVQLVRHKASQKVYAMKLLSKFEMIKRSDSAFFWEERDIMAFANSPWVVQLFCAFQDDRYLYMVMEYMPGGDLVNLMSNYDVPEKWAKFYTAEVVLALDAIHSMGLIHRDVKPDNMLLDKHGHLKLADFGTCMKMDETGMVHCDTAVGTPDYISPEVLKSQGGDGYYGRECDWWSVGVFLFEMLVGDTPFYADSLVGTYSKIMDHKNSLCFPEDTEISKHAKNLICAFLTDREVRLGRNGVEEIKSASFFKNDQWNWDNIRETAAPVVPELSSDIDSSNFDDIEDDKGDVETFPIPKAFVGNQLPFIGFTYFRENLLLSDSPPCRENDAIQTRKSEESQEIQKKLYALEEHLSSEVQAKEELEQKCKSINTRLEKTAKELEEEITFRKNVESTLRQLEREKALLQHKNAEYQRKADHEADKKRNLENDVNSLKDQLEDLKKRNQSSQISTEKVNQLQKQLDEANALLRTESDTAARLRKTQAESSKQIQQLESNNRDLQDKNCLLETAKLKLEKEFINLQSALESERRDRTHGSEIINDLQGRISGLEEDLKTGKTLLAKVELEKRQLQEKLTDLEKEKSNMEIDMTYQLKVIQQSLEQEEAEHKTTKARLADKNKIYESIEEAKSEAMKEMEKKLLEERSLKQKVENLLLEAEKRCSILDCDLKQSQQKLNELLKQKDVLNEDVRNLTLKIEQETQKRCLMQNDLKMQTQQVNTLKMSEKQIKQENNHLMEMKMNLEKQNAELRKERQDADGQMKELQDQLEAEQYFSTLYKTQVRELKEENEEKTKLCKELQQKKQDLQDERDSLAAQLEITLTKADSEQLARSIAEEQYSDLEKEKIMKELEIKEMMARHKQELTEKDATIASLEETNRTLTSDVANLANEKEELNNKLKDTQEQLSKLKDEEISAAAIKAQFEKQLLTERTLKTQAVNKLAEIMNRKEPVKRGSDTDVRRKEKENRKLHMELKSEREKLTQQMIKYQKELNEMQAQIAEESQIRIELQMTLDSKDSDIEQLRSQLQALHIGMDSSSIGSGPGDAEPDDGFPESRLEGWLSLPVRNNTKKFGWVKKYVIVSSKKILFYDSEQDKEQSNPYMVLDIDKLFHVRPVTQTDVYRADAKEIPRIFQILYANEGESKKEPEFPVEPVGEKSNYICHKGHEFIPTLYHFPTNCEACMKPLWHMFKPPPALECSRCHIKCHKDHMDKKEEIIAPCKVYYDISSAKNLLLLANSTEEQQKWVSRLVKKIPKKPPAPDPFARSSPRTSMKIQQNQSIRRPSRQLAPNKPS
Excerpt: (§1) In einem in vitro-Assay mit rekombinanter Rho-Kinase-II wird die Hemmung des Enzyms untersucht. Die gefäßrelaxierende Wirkung wird an Phenylephrin-induzierten Kontraktionen isolierter Ringe der Kaninchen-Arteria-Saphena bestimmt. Die Eignung der erfindungsgemäßen Verbindungen zur Behandlung von kardiovaskulären Erkrankungen kann durch Untersuchung der blutdrucksenkenden Wirkung an narkotisierten Ratten gezeigt werden.
Die Aktivität der Rho-Kinase wird durch den Einbau von ^33P-Phosphat in ein Substratpeptid bestimmt. Dazu wird kommerziell erhältliche Rho-Kinase II (Upstate Biotechnology) in Gegenwart des S6 Phosphate-Acceptor-Peptides mit den Testsubstanzen oder einer Lösungsmittelkontrolle 10 min bei 37°C vorinkubiert. Anschliessend wird die Kinase-Reaktion durch Zugabe von ^33P-markiertem ATP gestartet. Nach 20 min bei 37°C wird die Reaktion durch Zugabe von H3PO4 gestoppt. Aliquots werden auf Filter pipettiert, die Filter gewaschen und anschließend mit Scintillator beschichtet. Die Radioaktivität der am Filter gebundenen ^33P-markierten Peptide wird in einem Micro-Beta-Counter gemessen. Der IC50-Wert entspricht der Konzentration einer Testsubstanz bei welcher der Rho-Kinase katalysierte Einbau von ^33P in das Peptid im Vergleich zu einer Lösungsmittelkontrolle um 50 % gehemmt ist. Die experimentellen Daten sind in der folgenden Tabelle zusammengestellt.

[2] = test system: Kaninchen-Arteria-Saphena; assay: Vasorelaxant effect in vitro: phenylephrine-induced contractions of isolated rabbit saphenous artery rings
Excerpt: as §1
3 mm breite Ringe der isolierten Kaninchen-Arteria-Saphena werden einzeln in 5 ml-Organbäder mit 37°C warmer, carbogenbegaster Krebs-Henseleit-Lösung gebracht. Der Gefäßtonus wird isometrisch erfasst und registriert. Kontraktionen werden durch Zugabe von 3x10^-8 g/ml Phenylephrin induziert und nach 4 min wieder ausgewaschen. Nach mehreren Kontrollzyklen wird die zu untersuchende Substanz mit jedem weiteren Durchgang in steigender Dosierung vorinkubiert und die darauffolgende Kontraktion mit der Höhe der letzten Kontrollkontraktion verglichen. Es wird die Konzentration errechnet, die erforderlich ist, um die Höhe des Kontrollwertes um 50 % zu reduzieren (IC50). Die experimentellen Daten sind in der folgenden Tabelle zusammengestellt.

[3] = isolated rings of rabbit Arteria saphena, contraction induced by 3x10^-8 g/ml Phenylephrin, concentration reducing control contraction by 50 %, read-out: IC50

Row | IC50 [1] [µM] | IC50 [2, 3] [µM] | SMILES | IC50 [2] [µM]
1 | 0.07 | – | Nc1nc(Nc2ccc(Sc3ccncc3)c(F)c2)cc(Oc2cccc(Cl)c2)n1 [Beispiel 56] | –
2 | 0.006 | 0.9 | Nc1nc(Nc2cc(F)c(Sc3ccncc3)c(Cl)c2)cc(N2C[C@H]3CCCN[C@H]3C2)n1 [Beispiel 22] | –
3 | 0.005 | 0.36 | Nc1nc(Nc2cc(F)c(Sc3ccncc3)c(F)c2)cc(N2C[C@H]3CCCN[C@H]3C2)n1 [Beispiel 59] | –
4 | 0.007 | 0.76 | Nc1nc(Nc2ccc(Sc3ccncc3)c(F)c2)cc(-c2ccc3ncccc3c2)n1 [Beispiel 1, N-[2-Amino-6-(6-chinolinyl)-4-pyrimidinyl]-N-[3-fluor-4-(4-pyridinylsulfanyl)-phenyl]amin] | –

Row | SMILES | IC50 [1] [µM] | IC50 [2, 3] [µM] | IC50 [2] [µM]
5 | Nc1nc(Nc2ccc(Sc3ccncc3)c(F)c2)cc(N2C[C@H]3CCCN[C@H]3C2)n1 [Beispiel 20] | 0.011 | – | 1.7
